Where two headings read alike, the source gives them in different places.
Legend:
[1] = system: NCl-H82 (small cell lung cancer); assay: Antiproliferative assay on NCl-H82 cells (AlamarBlue, 120 h); assay type: cell-based; details: mean value from several measurements
Experimental: The antiproliferative activity of CDK7 inhibitors according to the present invention was evaluated in a cell test using continuous cell cultures: MDA-MB-468 (triple negative breast cancer, ATCC® HTB-132™) and NCl-H82 (small cell lung cancer, ATCC® HTB-175™) using a viable AlamarBlue dye (Thermo Fisher Scientific Inc, order no. DAL1100). The cells were grown in DMEM (PanEco, order no. C330π) and RPMI-1640 (PanEco, order no. C330π), respectively. The basal growth medium was enriched with L-glutamine at a concentration of 2 mM (PanEco, order no. Φ032) and 10% fetal bovine serum (Gibco, order no. 16140-071). The night before measurement, MDA-MB-468 adherent cells were detached from plastic with a solution of trypsin-EDTA (PanEco, order no. Π039π), the solution was then inactivated by a DMEM complete medium, centrifuged at 1000 RPM (Eppendorf, 5804 R), a suspension of cells was prepared in a DMEM complete medium, introduced into 96-well culture plates (Corning Inc, order no. 3599) at 8×10^3 cells in 100 μl of medium per well. The next day, test compounds were dissolved in DMSO and diluted with a DMEM complete medium to a final concentration ranging from 50 μM to 10 pM. Diluted compounds in a volume of 50 μl were introduced into the plate wells with cells in triplicates (the final concentration of DMSO was no more than 1%) and incubated at 37° C. in an incubator with 5% CO2 for 96 hours. NCl-H82 suspension cell line was prepared on the day of the analysis. 10×10^3 cells in 100 μl of an RPMI-1640 complete medium were added to each well of a 96-well plate. The procedure for sample dilution is as described above. Cells with test compounds were incubated at 37° C. in an incubator with 5% CO2 for 120 hours. Following incubation, […] of AlamarBlue reagent (Thermo Fisher Scientific Inc., order no. DAL1100) was added to the wells, the contents of the plates were stirred in an orbital shaker (Biosan, Latvia), then further incubated for 5.5-6 hours at 37° C. in an incubator with 5% CO2. The number of viable cells was detected using the Infinite M200Pro microplate spectrophotometer (Tecan Group Ltd, Switzerland) by way of measuring a fluorescent signal at an excitation wavelength (λEx) of 540 nm and an emission wavelength (λEm) of 590 nm.
IC50 value was calculated using the Magellan software (Tecan Group Ltd, Switzerland) by approximating experimental points by four-parameter model with the optimization by Levenberg-Marquardt: […]

[2] = target: CDK9/Cyclin K (Homo sapiens, UniProt P50750); assay: Inhibition of CDK9/Cyclin K kinase activity (ADP-Glo); assay type: biochemical
Sequence of CDK9/Cyclin K (P50750 whole entry): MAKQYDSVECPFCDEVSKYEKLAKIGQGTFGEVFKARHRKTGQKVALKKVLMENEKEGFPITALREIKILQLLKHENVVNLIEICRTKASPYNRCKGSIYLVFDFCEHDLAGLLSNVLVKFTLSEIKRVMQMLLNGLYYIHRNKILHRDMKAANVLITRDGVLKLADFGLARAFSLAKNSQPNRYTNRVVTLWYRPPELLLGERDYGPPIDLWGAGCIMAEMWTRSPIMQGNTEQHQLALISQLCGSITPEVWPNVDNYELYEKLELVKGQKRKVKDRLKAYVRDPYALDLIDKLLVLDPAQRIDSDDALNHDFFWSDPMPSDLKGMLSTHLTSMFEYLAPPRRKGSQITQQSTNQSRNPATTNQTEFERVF
Sequence of CDK9/Cyclin K (O75909 whole entry partner): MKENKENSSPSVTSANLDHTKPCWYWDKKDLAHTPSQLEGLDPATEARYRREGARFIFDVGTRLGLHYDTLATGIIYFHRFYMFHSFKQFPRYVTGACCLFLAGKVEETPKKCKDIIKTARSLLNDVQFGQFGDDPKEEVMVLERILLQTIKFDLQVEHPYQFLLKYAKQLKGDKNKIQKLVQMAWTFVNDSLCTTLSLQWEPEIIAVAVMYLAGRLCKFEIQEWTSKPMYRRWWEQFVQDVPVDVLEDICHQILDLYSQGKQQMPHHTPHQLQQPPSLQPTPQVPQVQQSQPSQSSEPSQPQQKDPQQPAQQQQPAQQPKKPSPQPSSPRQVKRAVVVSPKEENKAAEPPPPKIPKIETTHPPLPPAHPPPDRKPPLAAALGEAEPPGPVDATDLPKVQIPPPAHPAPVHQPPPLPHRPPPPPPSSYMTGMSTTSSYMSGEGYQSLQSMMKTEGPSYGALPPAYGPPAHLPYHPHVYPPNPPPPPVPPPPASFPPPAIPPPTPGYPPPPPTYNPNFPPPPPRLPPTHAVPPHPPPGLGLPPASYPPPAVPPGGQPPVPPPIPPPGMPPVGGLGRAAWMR
How it was run: (§1)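 ADP-Glo luminescence quantified ATP consumption after a 40-60 minute, 25° C. reaction with ATP plus CDKtide, Histone H1 or PDKtide, following a 10-minute compound–kinase preincubation in DTT-supplemented kinase buffer A. Compounds spanned 11 concentrations from 50 μM in 4-fold dilutions; IC50 fitted to a four-parameter model.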

[3] = Microsomal stability in human liver microsomes (HLM); assay type: in vitro ADME; details: 1 μM test compound
Experimental: The procedure for investigating the metabolism of selected compounds was carried out in microsomal fractions of the liver (of rats, mice, humans) in the presence of a phase I metabolism cofactor (NADPH).
The rate of enzymatic decomposition of the compound in liver microsomes in in vitro analysis was determined by keeping a reaction mixture comprising 0.5 mg/ml of pooled human, rat or mouse liver microsomes, 1 μM test compound, 1.5 mM […] (Carbosynth, UK, cat. no. NN108711101) and 1.5 mM magnesium chloride in 0.1 M sodium phosphate buffer (pH 7.4) in a solid-state thermostat at 37° C. (XenoTech, USA, order no. H2610, cat. no. R1000, cat. no. M1000). Incubation was carried out in three replicates.
To determine the stability of compounds under sample preparation conditions, an aliquot in two replicates with the test compound and a microsomal fraction devoid of the NADPH cofactor, which was incubated for 40 minutes at 37° C.
Reactions were stopped at 0, 10, 20, 30 and 40 min time points by way of adding an ice mixture of acetonitrile:methanol (3:1) comprising an internal standard.
Samples were then centrifuged to remove the precipitated protein, supernatants were analyzed using HPLC-MS/MS to determine in vitro clearance (CLint) of the compounds. The Agilent 6410 mass spectrometer (Agilent, USA) combined with the Agilent 1260 Infinity II HPLC liquid chromatograph (Agilent, USA) and a cooling autosampler controlled by MassHunter software (Agilent, USA) was used as an HPLC-MS/MS system. Chromatographic analysis was performed on a C18 reversed-phase HPLC column (Agilent, Waters or equivalent) in a gradient elution mode in a system of mobile phases: 0.1% formic acid in water/0.1% formic acid in acetonitrile, flow rate: 0.5 ml/min, column T=35° C. Mass spectrometric detection was performed with electrospray ionization in multiple reaction monitoring mode. Precursor ions, fragment ions and collision energies for each substance were selected experimentally.
A graph of dependence of the logarithmic ratio between substance's peak area and internal standard's peak area vs time was built. The dependent coefficient of this line corresponded to the elimination rate constant k, on the basis of which the in vitro clearance CLint was calculated:
Based on resulting in vitro clearance CLint values, the microsomal stability of the selected compounds for humans, rats and mice was concluded.

[4] = target: CDK7/Cyclin H/MNAT1 (Homo sapiens, UniProt P50613); assay: Inhibition of CDK7/Cyclin H/MNAT1 kinase activity (ADP-Glo); assay type: biochemical
Sequence of CDK7/Cyclin H/MNAT1 (P50613 whole entry): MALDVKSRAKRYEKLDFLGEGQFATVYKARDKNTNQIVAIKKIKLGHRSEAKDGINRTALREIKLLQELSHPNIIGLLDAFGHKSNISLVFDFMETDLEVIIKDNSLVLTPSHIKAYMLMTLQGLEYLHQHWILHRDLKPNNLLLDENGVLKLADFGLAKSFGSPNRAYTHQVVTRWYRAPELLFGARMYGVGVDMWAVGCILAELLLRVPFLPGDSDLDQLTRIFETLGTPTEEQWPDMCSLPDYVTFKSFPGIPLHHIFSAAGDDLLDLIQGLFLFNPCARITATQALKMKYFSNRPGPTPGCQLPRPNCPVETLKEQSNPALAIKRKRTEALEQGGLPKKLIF
Sequence of CDK7/Cyclin H/MNAT1 (P51946 whole entry partner): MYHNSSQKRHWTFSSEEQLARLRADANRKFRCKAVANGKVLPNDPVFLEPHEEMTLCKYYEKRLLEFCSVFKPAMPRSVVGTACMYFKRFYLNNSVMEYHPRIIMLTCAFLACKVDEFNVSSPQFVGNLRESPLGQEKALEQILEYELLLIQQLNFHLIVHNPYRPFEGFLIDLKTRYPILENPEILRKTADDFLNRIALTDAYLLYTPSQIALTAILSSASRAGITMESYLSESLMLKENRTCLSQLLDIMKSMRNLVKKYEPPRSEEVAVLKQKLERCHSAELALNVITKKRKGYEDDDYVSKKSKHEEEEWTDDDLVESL
Sequence of CDK7/Cyclin H/MNAT1 (P51948 whole entry partner): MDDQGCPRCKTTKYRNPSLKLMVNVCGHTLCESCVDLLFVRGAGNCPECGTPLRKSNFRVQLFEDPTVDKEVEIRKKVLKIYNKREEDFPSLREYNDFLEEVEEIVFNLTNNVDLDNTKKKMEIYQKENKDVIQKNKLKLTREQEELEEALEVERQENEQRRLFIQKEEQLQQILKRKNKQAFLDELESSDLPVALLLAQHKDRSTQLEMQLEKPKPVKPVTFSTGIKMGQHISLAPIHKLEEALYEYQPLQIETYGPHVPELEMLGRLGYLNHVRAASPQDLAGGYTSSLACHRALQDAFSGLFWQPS
How it was run: as §1

[5] = system: MDA-MB-468 (triple negative breast cancer); assay: Antiproliferative assay on MDA-MB-468 cells (AlamarBlue, 96 h); assay type: cell-based; details: Homo sapiens, mean value from several measurements
[6] = General cytotoxicity on primary differentiated HepaRG cells (72 h); assay type: cell-based; details: human, general toxicity, mean value from several measurements
How it was run: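 Test compounds spanning 200 μM to 0.2 nM were incubated for 72 hours with primary differentiated HepaRG cells. Cells had been kept one week in supplemented hepatic medium and seeded the night before at 25×10^3 per well, and viability was then measured.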

[7] = target: CDK2/Cyclin A (Homo sapiens, UniProt P24941); assay: Inhibition of CDK2/Cyclin A kinase activity (ADP-Glo); assay type: biochemical
How it was run: as §1

[8] = target: CDK13/Cyclin K (Homo sapiens, UniProt Q14004); assay: Inhibition of CDK13/Cyclin K kinase activity (ADP-Glo); assay type: biochemical
Sequence of CDK13/Cyclin K (Q14004 whole entry): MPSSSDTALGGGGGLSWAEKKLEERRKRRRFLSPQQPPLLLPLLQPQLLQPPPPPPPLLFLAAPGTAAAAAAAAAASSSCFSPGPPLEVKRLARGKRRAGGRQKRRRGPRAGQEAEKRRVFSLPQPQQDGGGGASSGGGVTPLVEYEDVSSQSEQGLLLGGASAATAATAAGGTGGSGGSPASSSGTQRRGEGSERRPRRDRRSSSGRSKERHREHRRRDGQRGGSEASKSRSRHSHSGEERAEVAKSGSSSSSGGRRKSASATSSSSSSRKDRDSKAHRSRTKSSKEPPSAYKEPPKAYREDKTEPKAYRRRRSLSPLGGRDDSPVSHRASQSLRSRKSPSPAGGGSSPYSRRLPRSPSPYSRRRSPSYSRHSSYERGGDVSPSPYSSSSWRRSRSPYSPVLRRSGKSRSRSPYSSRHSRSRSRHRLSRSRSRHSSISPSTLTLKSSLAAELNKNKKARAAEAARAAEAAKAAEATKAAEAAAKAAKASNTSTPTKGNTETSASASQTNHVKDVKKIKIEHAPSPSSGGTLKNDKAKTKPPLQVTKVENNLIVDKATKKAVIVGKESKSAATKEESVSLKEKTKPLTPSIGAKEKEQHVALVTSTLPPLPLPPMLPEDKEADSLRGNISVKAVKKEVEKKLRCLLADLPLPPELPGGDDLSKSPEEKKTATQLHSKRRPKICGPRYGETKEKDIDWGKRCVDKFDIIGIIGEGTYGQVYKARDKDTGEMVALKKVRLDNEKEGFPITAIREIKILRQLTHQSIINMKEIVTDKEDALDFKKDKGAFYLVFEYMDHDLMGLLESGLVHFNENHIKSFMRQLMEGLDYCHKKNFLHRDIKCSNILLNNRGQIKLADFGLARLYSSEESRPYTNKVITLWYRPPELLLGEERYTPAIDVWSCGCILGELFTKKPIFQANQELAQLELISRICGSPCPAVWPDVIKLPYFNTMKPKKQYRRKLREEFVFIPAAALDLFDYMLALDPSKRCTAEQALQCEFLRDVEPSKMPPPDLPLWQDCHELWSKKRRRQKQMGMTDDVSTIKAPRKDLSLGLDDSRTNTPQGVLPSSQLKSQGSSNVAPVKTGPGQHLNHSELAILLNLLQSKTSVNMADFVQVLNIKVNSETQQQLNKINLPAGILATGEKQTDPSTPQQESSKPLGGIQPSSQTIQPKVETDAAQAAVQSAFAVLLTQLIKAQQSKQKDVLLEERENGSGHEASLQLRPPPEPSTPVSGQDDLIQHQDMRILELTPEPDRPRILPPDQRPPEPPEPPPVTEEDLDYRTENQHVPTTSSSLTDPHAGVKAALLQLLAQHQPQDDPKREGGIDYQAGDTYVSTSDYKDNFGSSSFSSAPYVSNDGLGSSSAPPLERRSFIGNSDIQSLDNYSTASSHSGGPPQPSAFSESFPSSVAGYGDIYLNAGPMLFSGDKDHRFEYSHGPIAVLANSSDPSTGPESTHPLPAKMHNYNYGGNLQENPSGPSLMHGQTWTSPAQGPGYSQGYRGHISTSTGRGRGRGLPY
Sequence of CDK13/Cyclin K (O75909 whole entry partner): as the sequence (O75909 whole entry partner) above
Experimental: Measurements were carried out in a 5 μl reaction volume using a 384-well plate (Corning Inc., order no. 4513). The analyzed substances were titrated from 50 μM in increments of 4 at 11 concentration points in a normal strength kinase buffer A (Thermo Fisher Scientific Inc, cat. no. PV3189) supplemented with DTT (Sigma, orde. no. 646563-10X.5ML) and prepared with water (Panreac, order no. 701074). Kinase was diluted in an analogous buffer, mixed with test compounds in plate wells and preincubated for 10 minutes at 25° C. Following incubation, a mixture of reaction substrate (CDKtide (SignalChem, order no. C06-58) or Histone H1 (SignalChem, order no. H10-54N) or PDKtide (SignalChem, order no. P10-58) and ATP (SignalChem, order no. V915B) prepared on a normal strength kinase buffer A was added. 1% solution of dimethyl sulfoxide (DMSO) (Sigma-Aldrich, order no. D2438) in the reaction volume was used as a negative control. The final concentrations of all reaction components are shown in Table 5. The plate was centrifuged at 400 rcf (Eppendorf, 5804 R) for 1 minute and incubated for 40-60 minutes at 25° C. The amount of ATP consumed in the kinase reaction was then measured using the ADP-Glo™ detection system. Luminescence signal was measured using Spark 20M tablet multifunction reader (Tecan Group Ltd, Switzerland). IC50 value was calculated using Magellan 7.2 (Tecan Group Ltd, Switzerland) by approximating experimental points by four-parameter model with the optimization by Levenberg-Marquardt:
[formula] • where A is the upper asymptote; D is the lower asymptote; C is IC50, half-maximal inhibitory concentration of kinase, nM; B is the curvature (slope).

[9] = Passive membrane permeability through PAMPA artificial membrane, pH 7.4; assay type: in vitro ADME; details: pH 7.4, 10 μmol, 20 hours at room temperature, mean of multiple measurements, read-out: PAMPA passive permeability Pe
How it was run: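 Compound at 10 μmol in 0.01 M phosphate buffer pH 7.4 placed in donor wells over lecithin-phospholipid-impregnated PVDF filter, buffer in acceptor; 20 h at room temperature. Donor and acceptor levels measured by RP-HPLC-UV; Pe (cm/s) and membrane retention R (%) calculated.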

[10] = mean of multiple measurement series, ATP 50 μM, read-out: CDK9/Cyclin K IC50
[11] = mean value from several measurements, read-out: IC50 CDK9/Cyclin K
[12] = mean of multiple measurement series, ATP 10 μM, read-out: CDK7/Cyclin H/MNAT1 IC50
[13] = mean value from several measurements, read-out: IC50 CDK7/Cyclin H/MNAT
[14] = mean of multiple measurement series, ATP 50 μM, read-out: CDK2/Cyclin A IC50
[15] = mean value from several measurements, read-out: IC50 CDK2/Cyclin A
[16] = mean value from several measurements, read-out: IC50 CDK13/Cyclin K

SMILES | IC50 [1] | IC50 [2, 10] | IC50 [2, 11] | In vitro clearance CLint (HLM) [3] | IC50 [4, 12] | IC50 [4, 13] | IC50 [5] | CC50 at 72 h [6] | IC50 [7, 14] | IC50 [7, 15] | IC50 [8, 16] | Papp at 20 h, 10 μmol [9] | IC50 ([8]; mean of multiple measurement series, ATP 10 μM, read-out: CDK13/Cyclin K IC50)
Cc1noc(C)c1-n1ccc2c(-c3nc(N[C@H]4CCCNC4)ncc3C(F)(F)F)c[nH]c2c1=O [CDK7_924, 6-(3,5-dimethyl-1,2-oxazol-4-yl)-3-(2-{[(3S)-piperidin-3-yl]amino}-5-(trifluoromethyl)pyrimidin-4-yl)-1H,6H,7H-pyrrolo[2,3-c]pyridin-7-one] | 10 to 100 nM | 431 nM | > 200 nM | A (Clint < 20 μl/(min · mg of protein)) | < 5 nM | < 5 nM | < 10 nM | > 2000 nM | 7800 nM | > 200 nM | – | – | –
Cn1nnc(-c2cc(-c3nc(N[C@H]4CCCNC4)ncc3C(F)(F)F)c[nH]2)n1 [CDK7_1000, 4-[5-(2-methyl-2H-1,2,3,4-tetrazol-5-yl)-1H-pyrrol-3-yl]-N-[(3S)-piperidin-3-yl]-5-(trifluoromethyl)py-rimidin-2-amine] | 10 to 100 nM | – | 5 to 50 nM | – | – | < 5 nM | 10 to 100 nM | 100 to 500 nM | – | > 200 nM | 5 to 50 nM | < 1 ×10⁻⁶ cm/s | –
FC(F)(F)c1cnc(N[C@H]2CCCNC2)nc1-c1c[nH]c(-c2noc(C3CC3)n2)c1 [CDK7_1103] | 10 to 100 nM | – | 50 to 200 nM | A (Clint < 20 μl/(min · mg of protein)) | – | < 5 nM | 10 to 100 nM | 100 to 500 nM | – | > 200 nM | – | – | –
Cn1ccnc1N1CCCc2c(-c3nc(NC4CCCNC4)ncc3C(F)(F)F)c[nH]c2C1=O (stereo not drawn) [CDK7_1177] | – | – | > 200 nM | A (Clint < 20 μl/(min · mg of protein)) | – | 5 to 50 nM | – | > 2000 nM | – | > 200 nM | – | – | –
CN1CCCc2c(-c3nc(N[C@H]4CCC5(CC5)NC4)ncc3C(F)(F)F)c[nH]c2C1=O [CDK7_1201, 3-[2-({4-azaspiro[2.5]octan-6-yl}amino)-5-(trifluoromethyl)py-rimidin-4-yl]-7-methyl-1H,4H,5H,6H,7H, 8H-pyrrolo[2,3-c]azepin-8-one] | < 10 nM | 112 nM | 50 to 200 nM | – | < 5 nM | < 5 nM | < 10 nM | 500 to 2000 nM | 4500 nM | > 200 nM | 50 to 200 nM | 5 to 10 ×10⁻⁶ cm/s | 65 nM

From patent publication US20260137698A1, “CYCLIN-DEPENDENT KINASE 7 INHIBITORS” (JOINT STOCK COMPANY «BIOCAD», priority 2022, published 2026)
